Assay results taken from patent publication EP0688218B1, “INTERLEUKIN-1 INHIBITOR” (OTSUKA PHARMACEUTICAL CO., LTD., priority 1993, dated 1994).

What was measured:
IL-1α = experiment: Inhibition of LPS-stimulated IL-1α release in heparinized peripheral blood culture (ELISA); assay type: cell-based, human; conditions: Dose 3 x 10^-5 g/ml; 10% heparinized peripheral blood from healthy volunteer; LPS 3.3 µg/ml; 18 - 24 hours
Description: (§1) Method: A 10% heparinized prepheral blood from healthy volunteer, a test compound and lipopolysaccharide (LPS, 3.3 µg/ml) were suspended in RPMI-1640 medium supplemented with penicillin 100 units/ml and streptomycin […], and the mixture was incubated in a 5% CO2 atmosphere at 37°C for 18 - 24 hours. The supernatant of the culture was collected by centrifugation.
(§2) The IL-1α and IL-1β isolated from cells by stimulation with LPS were measured by enzyme-linked immunoassay (ELISA). That is, 96-well ELISA plate was coated with a mouse monoclonal antibody against human IL - 1α or human IL-1β, followed by blocking treatment, and thereto was added a test sample and it was subjected to reaction. […] After removing the unbound POD-conjugated antibody by washing, a substrate solution (containing ortho-phenylenediamine and hydrogen peroxide) was added and subjected to reaction, and thereafter, the absorbance at 492 nm was measured, and thereby the amounts of IL-1α and IL-1β were measured based on each standard curve. The ratio (%) of inhibition of IL-1 release was calculated by the following equation: IL-1 release inhibitory ratio (%) = 100 x (1-T/C) [formula] wherein T means the amount of IL-1 in the supernatant of culture incorporated with the test compound, and C means the amount of IL-1 in the supernatant of culture added only with the solvent.

IL-1β = experiment: Inhibition of LPS-stimulated IL-1β release in heparinized peripheral blood culture (ELISA); assay type: cell-based, human; conditions: Dose 3 x 10^-5 g/ml; 10% heparinized peripheral blood from healthy volunteer; LPS 3.3 µg/ml; 18 - 24 hours
Description: as §1, §2

## Cc1c(F)c(N2CCNC(C)C2)cc2c1c(=O)c(C(=O)O)cn2C1CC1 (stereo not shown) [Test compound 1, 7-(3-Methyl-1-piperazinyl)-1-cyclopropyl-6-fluoro-5-methyl-1,4-dihydro-4-oxoquinoline-3-carboxylic acid]
IL-1α
  IL-1α release inhibitory ratio: 93%
IL-1β
  IL-1β release inhibitory ratio: 96%

## CC1CCc2c(N3CCC(O)CC3)c(F)cc3c(=O)c(C(=O)O)cn1c23 (stereo not shown) [Test compound 2, 9-Fluoro-8-(4-hydroxy-1-piperidinyl)-5-methyl-6,7-dihydro-1-oxo-1H,5H-benzo[ji]quinolidine-2-carboxylic acid]
IL-1α
  IL-1α release inhibitory ratio: 82%
IL-1β
  IL-1β release inhibitory ratio: 78%
